Measured values taken from patent publication US11498921B1, “Pyrimidine or pyridine compounds, preparation method therefor and pharmaceutical uses thereof” (INVENTISBIO CO., LTD., priority 2014, dated 2022).
Counter-ions that a name gives are not always drawn.

Tests used:
[1] = tested on: NCI-H1975 cells (T790M and L858R EGFR mutations); test: Cell growth inhibition (Cell Titer-Glo), NCI-H1975; assay type: cell-based; details: Homo sapiens, 72 hours drug treatment, 0.03 nM to 100 nM
Method: (§1) Experiment of Cell Growth Inhibition
(§2) The LoVo cell line is a wild-type EGFR human colon adenocarcinoma cell, and is grown in F-12K medium (GIBCO) containing 10% FBS. NCI-H2073 cell line is a wild-type EGFR human non-small cell lung cancer cell and grown in ACL-4 medium containing 10% FBS. The growth rate of NCI-H1975, LoVo and NCI-H2073 cells was detected by Cell Titer-Glo luminescence activity assay (Promega #G7572).
(§3) Briefly, trypsin was used for digesting cells in the logarithmic growth phase. 96-well plates were seeded with 50,000 Lovo or NCI-H2073 cells, 2500-3000 NCI-H1975 cells per well and provided with blank control wells containing only nutrient solution without inoculated cell, and the plates were incubated in a humidified incubator with 5% CO2 at 37° C. […] The concentration of test drug in NCI-H1975 cells was from 0.03 nM to 100 nM, and that in LoVo and NCI-H2073 cells was from 3 nM to 10 μM. The cell culture medium containing the different compounds was then added to a 96-well cell plate in which one cell control well comprising cell culture medium only containing DMSO was provided. After a drug treatment for 72 hours, the cell plates were removed from the incubator and allowed to stand at room temperature for 30 minutes. Next, Cell Titer-Glo reagent was added to the wells and the 96-well cell plate was shaken at room temperature for 10 minutes to induce cell lysis. The 96-well cell plate was placed on the bench for 2 minutes to stabilize the luminescence signal. Finally, the 96-well cell plate was placed in an EnVision Multi-labeled Microplate Reader (PerkinElmer), and the signal was read with an integral time of 0.5 seconds.
(§4) Formula: Percentage of cell growth inhibition %=(maximum signal−compound signal)/(maximum signal−minimum signal)*100%
(§5) The maximal signal was obtained from the cell control well which were treated with the DMSO solution having no any compound;
(§6) The compound signal was obtained from the drug-treated cell wells to which the compound was added;
(§7) The minimum signal was obtained from a blank control well to which no cells and only nutrient solution was added.

[2] = Concentration of parent drug and metabolite AZ5104 in rat plasma; assay type: in vivo; details: po, adult male rats, intragastrically, 10 mg/kg, 0.25-24 hours
Method: Comparison of the concentration of the metabolite AZ5104 in rats' body plasma of the pyrimidine compounds according to the present invention and AZD9291
Briefly, AZD9291 or the compound 49.(HCl)n of Example 49 or the compound 104.(MsOH) of Example 104 were administered intragastrically to 200-220 g of adult male rats at amount of 10 mg/kg. Each administration group had two to three rats. After administration, 150 μl of blood was extracted from the vein on the rat tail at different times (0.25, 0.5, 1, 2, 4, 6, 8, 12 and 24 hours), put in a tube with K2EDTA and placed immediately on ice. Then, the blood sample was centrifuged in centrifuge with a 4-degree at a speed of 2000 g for 15 minutes. The plasma was separated and placed in a small tube and stored in a refrigerator at −80° C. The concentration of parent drug and metabolite in plasma sample was analyzed by LC/MS.

[3] = tested on: NCI-H2073 cells (wild-type EGFR human non-small cell lung cancer); test: Cell growth inhibition (Cell Titer-Glo), NCI-H2073; assay type: cell-based; details: 72 hours drug treatment, 3 nM to 10 μM
Method: as §1
as §2, with “The compounds that were preferentially targeted for EGFR targeting certain mutations and relatively weak in wild-type EGFR were identified by determining the growth of cells. The NCI-H1975 cell line is a human non-small cell lung cancer cell containing T790M and L858R EGFR mutations, and the cell is grown in RPMI-1640 medium (GIBCO) containing 10% fetal bovine serum (FBS). The LoVo” for “The LoVo”
Briefly, trypsin was used for digesting cells in the logarithmic growth phase. 96-well plates were seeded with 50,000 Lovo or NCI-H2073 cells, 2500-3000 NCI-H1975 cells per well and provided with blank control wells containing only nutrient solution without inoculated cell, and the plates were incubated in a humidified incubator with 5% CO2 at 37° C. After 24 hours, the DMSO solution of the different compounds was diluted with a cell culture medium at 3.16 times per time to eight different concentrations from high to low levels. The concentration of test drug in NCI-H1975 cells was from 0.03 nM to 100 nM, and that in LoVo and NCI-H2073 cells was from 3 nM to 10 μM. The cell culture medium containing the different compounds was then added to a 96-well cell plate in which one cell control well comprising cell culture medium only containing DMSO was provided. After a drug treatment for 72 hours, the cell plates were removed from the incubator and allowed to stand at room temperature for 30 minutes. Next, Cell Titer-Glo reagent was added to the wells and the 96-well cell plate was shaken at room temperature for 10 minutes to induce cell lysis. The 96-well cell plate was placed on the bench for 2 minutes to stabilize the luminescence signal. Finally, the 96-well cell plate was placed in an EnVision Multi-labeled Microplate Reader (PerkinElmer), and the signal was read with an integral time of 0.5 seconds.
as §4, §5, §6, §7

[4] = tested on: LoVo cells (wild-type EGFR human colon adenocarcinoma); test: Cell growth inhibition (Cell Titer-Glo), LoVo; assay type: cell-based; details: 72 hours drug treatment, 3 nM to 10 μM
Method: as §1, §2, §3, §4, §5, §6, §7

Structure (SMILES)	IC50 [1] [nM]	AUC [2] [µM·h]	IC50 [3] [nM]	IC50 [4] [nM]
C=CC(=O)Nc1cc(Nc2nccc(-c3cn(S(C)(=O)=O)c4ccccc34)n2)c(OC)cc1N(C)CCN(C)C [49. (HCl)n]	0.7	0.91	135	2260
C=CC(=O)Nc1cc(Nc2nccc(-c3cn(C)c4ccccc34)n2)c(OC)cc1N(CC)CCN(C)C [9. (MsOH)2]	13	–	1130	2060
C=CC(=O)Nc1cc(Nc2nccc(N3CCc4ccccc43)n2)c(OC)cc1N(C)CCN(C)C [5. (MsOH)3]	5.4	–	335	4230
C=CC(=O)Nc1cc(Nc2nccc(-c3cccc4c3ccn4C)n2)c(OC)cc1N(C)CCN(C)C [41. (HCl)n]	7.4	–	340	> 10000

Results, then the compound that gave them:

IC50 [1] [nM]	AUC [2] [µM·h]	IC50 [3] [nM]	IC50 [4] [nM]	Structure (SMILES)
16.5	1.49	977	–	C=CC(=O)Nc1cc(Nc2nccc(-c3cn(CC(F)(F)F)c4ccccc34)n2)c(OC)cc1N(C)CCN(C)C [104. (MsOH)2]
–	0.64	–	–	C=CC(=O)Nc1cc(Nc2nccc(-c3cn(C)c4ccccc34)n2)c(OC)cc1N(C)CCN(C)C [AZD9291, reference compound]
14	–	690	2860	C=CC(=O)Nc1cc(Nc2nccc(-c3cn(C)c4ccccc34)n2)c(OC)cc1N(C)CCN1CCC(O)C1 (centres unmarked) [53. (HCl)n]
36	–	> 10000	4180	C=CC(=O)Nc1cc(Nc2nccc(-n3ccc(=O)c4ccccc43)n2)c(OC)cc1N(C)CCN(C)C [56. (HCl)n]
1.4	–	110	4070	[2H]C([2H])([2H])Oc1cc(N(C)CCN(C)C)c(NC(=O)C=C)cc1Nc1nccc(-n2c(=O)n(C)c3ccccc32)n1 [60. (HCl)n]
